According to US11717561B2, “Multimodal antimicrobial therapy” (Longhorn Vaccines and Diagnostics, LLC, priority 2013, dated 2023):
Read-outs that look alike come from different tables or passages of the source.

Legend:
[1] = test system: Mycobacterium smegmatis (MS); experiment: Effect of antibiotics and lysostaphin on growth/lysis of live M. smegmatis, % T at 650 nm; type: cell-based
[2] = test system: ethanol-killed MTB; type: cell-based, M. tuberculosis; settings: 375 μg/ml
[3] = Imp 1 mg/ml, Lysostaphin 0 units/ml
[4] = Rif 1 mg/ml, Lysostaphin 0 units/ml

**Q.** With `C[C@@H](O)[C@H]1C(=O)N2C(C(=O)O)=C(SCCNC=N)C[C@H]12.O` [Imp, Imipenem monohydrate] as the compound, how does the “% Transmission (% T) change from baseline (negative equals growth, positive equals lysis/killing)” value ([1]; Imipenem 1.0 mg/ml without lysostaphin) read?
**A.** +12.54 % T

**Q.** What about the “% T 5 min” value [1, 3] of the same compound?
**A.** 78.00%

**Q.** What about the “% T 3 hours” value [1, 3] of the same compound?
**A.** 82.67%

**Q.** And the “% T 20 hours” value [1, 3]?
**A.** 90.54%

**Q.** How did the “% T 5 min” value [1, 4] turn out when `CO[C@H]1/C=C/O[C@@]2(C)Oc3c(C)c(O)c4c(O)c(c(/C=N/N5CCN(C)CC5)c(O)c4c3C2=O)NC(=O)/C(C)=C\C=C\[C@H](C)[C@H](O)[C@@H](C)[C@@H](O)[C@@H](C)[C@H](OC(C)=O)[C@@H]1C` [Rif, Rifampicin] was run?
**A.** 79.25%

**Q.** And the “% T 3 hours” value [1, 4]?
**A.** 75.27%

**Q.** What about the “% T 20 hours” value [1, 4] of the same compound?
**A.** 71.79%

**Q.** “Lysostaphin: natural lysostaphin from S. staphylolyticus (Sigma Cat L7386), a 27 kD glycylglycine endopeptidase” was tested. Which “% T 5 min” value ([1]; Lysostaphin alone 200 units/ml) did it give?
**A.** 77.34%

**Q.** And the “% T 3 hours” value ([1]; Lysostaphin alone 200 units/ml)?
**A.** 71.54%

**Q.** What about the “% T 20 hours” value ([1]; Lysostaphin alone 200 units/ml) of the same compound?
**A.** 45.47%

**Q.** Which “% T at 3 min” value ([2]; bacterial dilution 1:2) does the source give for “Recombinant Lysostaphin: recombinant simulans lysostaphin produced in E. coli (Sigma-Aldrich)” here?
**A.** 86.268%

**Q.** What about the “% T at 10 min” value ([2]; bacterial dilution 1:2) of the same compound?
**A.** 91.59%

**Q.** And the “% T at 20 min” value ([2]; bacterial dilution 1:2)?
**A.** 92.587%

**Q.** What about the “% T at 3 min” value ([2]; bacterial dilution 1:4) of the same compound?
**A.** 95.356%

**Q.** What about the “% T at 10 min” value ([2]; bacterial dilution 1:4) of the same compound?
**A.** 77.33%

**Q.** What about the “% T at 20 min” value ([2]; bacterial dilution 1:4) of the same compound?
**A.** 92.651%

**Q.** And the “% T at 3 min” value ([2]; bacterial dilution 1:8)?
**A.** 97.308%

**Q.** And the “% T at 10 min” value ([2]; bacterial dilution 1:8)?
**A.** 98.03%

**Q.** And the “% T at 20 min” value ([2]; bacterial dilution 1:8)?
**A.** 98.186%
